Laboratory results published in the NIST ThermoML archive (doi:10.1016/j.fluid.2019.06.001).

Conditions: Fluid (supercritical or subcritical phases), Brillouin light scattering technique

CCCCCC [hexane]
Conditions | speed of sound [m/s]
509.17 K, 3500 kPa | 162.1
509.4 K, 4500 kPa | 243.8
509.44 K, 6500 kPa | 331.1
509.57 K, 5500 kPa | 291.1
509.67 K, 7500 kPa | 361.3
511.22 K, 5500 kPa | 286.1
511.26 K, 4500 kPa | 232.7
511.27 K, 6500 kPa | 324.2
511.34 K, 7500 kPa | 355.3
511.69 K, 3500 kPa | 138.7
514.25 K, 7500 kPa | 347.2
514.43 K, 6500 kPa | 314.1
514.46 K, 3500 kPa | 112.5
514.5 K, 4500 kPa | 216.4
514.6 K, 5500 kPa | 272
517.46 K, 7500 kPa | 336.8
517.47 K, 4500 kPa | 201.9
517.58 K, 6500 kPa | 303.6
517.72 K, 3500 kPa | 95.8
517.82 K, 5500 kPa | 260.2
519.87 K, 3500 kPa | 100.4
520.19 K, 7500 kPa | 328.5
520.36 K, 4500 kPa | 183.7
520.46 K, 6500 kPa | 289
520.54 K, 5500 kPa | 245.2
523.4 K, 4500 kPa | 168.4
523.63 K, 6500 kPa | 278.2
523.79 K, 3500 kPa | 112.7
523.89 K, 5500 kPa | 229.4
523.93 K, 7500 kPa | 316.5
527.66 K, 4500 kPa | 155
527.85 K, 3500 kPa | 120.4
528.22 K, 5500 kPa | 210.9
528.42 K, 7500 kPa | 304.2
528.58 K, 6500 kPa | 263.2
533.3 K, 4500 kPa | 131.7
533.43 K, 7500 kPa | 285.3
533.48 K, 6500 kPa | 248.1
533.62 K, 5500 kPa | 194.1
533.83 K, 3500 kPa | 134.2
538.14 K, 4500 kPa | 125
538.33 K, 5500 kPa | 174.8
538.58 K, 6500 kPa | 231.5
538.81 K, 7500 kPa | 270.8
538.84 K, 3500 kPa | 140.1
543 K, 4500 kPa | 125.6
543.14 K, 6500 kPa | 219.9
543.21 K, 5500 kPa | 165.4
543.52 K, 7500 kPa | 259.9
543.69 K, 3500 kPa | 145.3
547.89 K, 5500 kPa | 158.2
547.96 K, 4500 kPa | 130.2
548.14 K, 6500 kPa | 207.4
548.31 K, 3500 kPa | 149.2
548.56 K, 7500 kPa | 248.3
553.1 K, 3500 kPa | 155.1
553.44 K, 7500 kPa | 235.1
553.55 K, 6500 kPa | 194.1
553.6 K, 4500 kPa | 134.9
554.09 K, 5500 kPa | 150.9
558.44 K, 3500 kPa | 161.5
558.48 K, 4500 kPa | 139.2
558.9 K, 5500 kPa | 144.8
559.79 K, 6500 kPa | 180.9
560.33 K, 7500 kPa | 222.2
562.44 K, 4500 kPa | 142.8
562.56 K, 3500 kPa | 164.9
563.13 K, 5500 kPa | 143.4
563.76 K, 6500 kPa | 171.7
563.92 K, 7500 kPa | 215.1
567.95 K, 4500 kPa | 150.6
568.21 K, 3500 kPa | 168.8
568.4 K, 5500 kPa | 146.5
568.54 K, 7500 kPa | 205.6
568.59 K, 6500 kPa | 169
573.12 K, 7500 kPa | 201.1
573.18 K, 5500 kPa | 150
573.36 K, 4500 kPa | 155.7
573.51 K, 6500 kPa | 165.9
574.58 K, 3500 kPa | 174.8
578.08 K, 4500 kPa | 161.3
578.22 K, 5500 kPa | 154
578.65 K, 6500 kPa | 167.9
578.77 K, 3500 kPa | 177.5
579.07 K, 7500 kPa | 191.7
582.79 K, 5500 kPa | 157.3
582.93 K, 4500 kPa | 164.7
583.09 K, 6500 kPa | 165.5
583.3 K, 7500 kPa | 190.5
584.09 K, 3500 kPa | 183
587.91 K, 4500 kPa | 170.5
588.07 K, 5500 kPa | 160.4
588.45 K, 6500 kPa | 166.4
588.59 K, 3500 kPa | 186.5
589.01 K, 7500 kPa | 188.8
592.61 K, 5500 kPa | 164.2
592.78 K, 6500 kPa | 168.5
593.04 K, 4500 kPa | 174.8
593.24 K, 7500 kPa | 187.8
594.05 K, 3500 kPa | 188.6
597.84 K, 4500 kPa | 178.5
597.98 K, 5500 kPa | 169.1
598.14 K, 6500 kPa | 168.6
598.52 K, 7500 kPa | 186.2
598.83 K, 3500 kPa | 192.2
602.73 K, 4500 kPa | 181.2
602.85 K, 5500 kPa | 172
603.05 K, 6500 kPa | 173.4
603.41 K, 3500 kPa | 195.9
603.44 K, 7500 kPa | 186
608.03 K, 4500 kPa | 183.5
608.05 K, 5500 kPa | 178
608.12 K, 6500 kPa | 175.1
608.49 K, 7500 kPa | 185.6
608.96 K, 3500 kPa | 198.5
612.5 K, 5500 kPa | 180.2
612.69 K, 6500 kPa | 179.7
612.7 K, 4500 kPa | 187
613.43 K, 7500 kPa | 187.8
614.5 K, 3500 kPa | 203.1
617.91 K, 4500 kPa | 193.6
618.05 K, 5500 kPa | 184.3
618.21 K, 6500 kPa | 182
618.56 K, 7500 kPa | 190.1
618.79 K, 3500 kPa | 204.3
622.49 K, 6500 kPa | 184.8
622.59 K, 7500 kPa | 191
622.8 K, 5500 kPa | 186.5
623.06 K, 4500 kPa | 195.6
624.52 K, 3500 kPa | 206.1
628.11 K, 5500 kPa | 190.4
628.12 K, 7500 kPa | 194.6
628.15 K, 4500 kPa | 198.3
628.16 K, 6500 kPa | 189
629.29 K, 3500 kPa | 209.3
632.52 K, 4500 kPa | 202.1
632.99 K, 6500 kPa | 192.3
633.06 K, 7500 kPa | 196.8
633.07 K, 5500 kPa | 193.6
633.86 K, 3500 kPa | 210.4
635.27 K, 7500 kPa | 198
635.5 K, 6500 kPa | 194.3
636.04 K, 5500 kPa | 195
636.79 K, 4500 kPa | 204.9
637.99 K, 3500 kPa | 211.6
